Oligonucleotides are written 5' to 3', each unit as a sugar letter and its base; * is a phosphorothioate linkage, no mark a phosphodiester; rarer units and linkages stand in square brackets, end groups in braces. Plain capitals give the bases only. k = constrained ethyl (cEt); [5mC] = 5-methylcytosine; d = 2'-deoxy (DNA)
Assays:
Assay type in all cases: cell-based, human
AR full-length mRNA = AR full-length mRNA in CWR22-RV1 cells (RNAiMax, RTS3559); conditions: 6 days
Method: (§1) CWR22-RV1 cells were plated and transfected using RNAiMax reagent (Life Technologies) with ISIS oligonucleotides at 1.7 nM, 5.0 nM, 16.7 nM, or 50 nM concentrations. ISIS 347526 was included as a negative control. After a treatment period of 6 days, the target reduction and proliferative capacity of the cancer cells was measured.
(§2) Antisense inhibition of AR full-length mRNA was measured with the RTS3559 primer probe set. The results are presented in Table 63 as percent inhibition relative to non-treated cells. The reduction in V7 splice variant of the AR mRNA was also measured by RT-PCR using SYBR Green staining (Hu, R. et al., Cancer Res. 2009. 69: 16-22). The results are presented in Table 64, as percent reduction, relative to non-treated cells. Cell proliferation was measured with CellTiter 96® AQueous One Solution Cell Proliferation kit (Promega), following the manufacturer's instructions. Results are presented in Table 65 as percent inhibition of proliferation, relative to non-treated cells.

C4-2B cells [1] = experiment: C4-2B cell proliferation, ASO in combination with MDV3100 (Example 19); conditions: for Percent inhibition of C4-2B cell proliferation with 0.1 μM ASO / Percent inhibition of C4-2B cell proliferation with 0.2 μM ASO / reduced cell proliferation, ASO alone: 6 days; for reduced cell proliferation, ASO alone: Table 46 (0.1 μM ASO)
Method: C4-2B cells were plated at 1,500 cells per well. […] ISIS 347526 was included as a negative control. […] After a treatment period of 6 days, the proliferative capacity of the cancer cells was measured with CellTiter 96® AQueous One Solution Cell Proliferation kit (Promega), following the manufacturer's instructions. Results are presented in Table 46 as percent inhibition of proliferation, relative to non-treated cells. Treatment of the cells with ISIS 549372 or ISIS 549458 reduced proliferation of the cells more extensively than treatment with ISIS 554221.

AR mRNA [2] = experiment: AR mRNA in C4-2B cells by free uptake (hAR_LTS00943); conditions: 24 hrs; for Percent inhibition of AR full-length mRNA: free uptake
Method: (§3) Cells were plated at a concentration of 1,000 cells/well in 96-well plates to measure cell proliferation, and at 4,000 cells/well to measure target reduction. ISIS 549458, ISIS 549372, ISIS 549434, and ISIS 554221 were added individually at 0.04 μM, 0.20 μM, 1.00 μM, or 5.00 μM. After an incubation period of 24 hrs, mRNA levels were measured using hAR_LTS00943.

AR mRNA [3] = experiment: AR mRNA levels in LMR20 cells (with/without DHT or R1881); conditions: with or without DHT/R1881
Method: LMR20 cells were plated at 1,500 cells per well in phenol red-free medium with CSS.

[4] = test system: V7 splice variant of the AR mRNA; experiment: AR V7 splice variant mRNA in CWR22-RV1 cells (RT-PCR SYBR Green); conditions: RNAiMax, 6 days
Method: as §1, §2

AR-V7 = experiment: Western blot of AR-V7 in MDV3100-resistant C4-2B cells; conditions: for levels of AR-V7 (Western analysis): C4-2B MR cells (Example 16)
Method: (§4) ISIS 549372, ISIS 549434, and ISIS 554221 at 1 μM concentration of antisense oligonucleotide were each added to the culture media at 1 μM concentration for free uptake by the cells. After a treatment period of 2 days, cells were harvested in RIPA buffer containing protease inhibitors. The presence of bands for full-length AR, as well as the variant form, AR-V7, was detected by western blot using AR antibody (N-20, Santa Cruz).
(§5) Western analysis of full-length AR, as well as the AR-V7 variant, was also conducted in a manner similar to the assay described above.

full-length AR = experiment: Western blot of full-length AR in MDV3100-resistant C4-2B cells; conditions: for levels of full-length AR (Western analysis): C4-2B MR cells (Example 16)
Method: as §4, §5

LMR20 cells = experiment: Proliferation of MDV3100-resistant LMR20 cells (MTT; with R1881 or DHT); conditions: 5 days
Method: LMR20 cells were plated at 1,500 cells per well in phenol red-free medium with charcoal-stripped fetal bovine serum (CSS), to remove any androgens from the medium (Life Technologies). […] The synthetic androgen agonist, R1881, (Takeda, A. N. et al., Mol. Pharmacol. 2007. 71: 473-82) was added on day 1 at 1 nM dose to a set of cells also treated with each of the antisense oligonucleotides. DHT was added on day 1 at a dose of 10 nM to another set of cells also treated with each of the antisense oligonucleotides. […] After a treatment period of 5 days, the proliferative ability of the cancer cells was measured by the standard MTT assay. Results are presented in Table 42 as percent inhibition of proliferation, relative to non-treated cells.

C4-2B cells [5] = experiment: C4-2B cell proliferation by free uptake (MTT); conditions: day 6
Method: as §3
On day 6, cells plated for measuring proliferation were incubated with MTT reagent until the development of color. Color intensity was measured using a spectrophotometer at 490 nm.

CWR22-RV1 cells = experiment: CWR22-RV1 cell proliferation (CellTiter 96); conditions: RNAiMax, 6 days
Method: as §1, §2

KLK2 mRNA = KLK2 mRNA (AR target gene) in C4-2B MR cells; conditions: C4-2B MR cells, 0.04-5.00 μM
total AR mRNA = experiment: Total (full-length) AR mRNA in C4-2B MR cells, free uptake; conditions: C4-2B MR cells, 0.04-5.00 μM free uptake, 24 hrs
Method: Cells were plated at a density of 40,000 cells per well in 96-well plates and cultured in RPMI1640 medium with 10% fetal bovine serum. […] ISIS 549372, ISIS 549458, ISIS 549434, and ISIS 554221 were each added at 0.04 μM, 0.20 μM, 1.00 μM, and 5.00 μM concentrations of antisense oligonucleotide to culture media for free uptake by the cells. […] After a treatment period of 24 hrs, total AR mRNA levels were measured by quantitative real-time PCR using primer probe set RTS3559.

C4-2B MR cells = experiment: Proliferation of MDV3100-resistant C4-2B cells (CellTiter 96); conditions: 0.04-5.00 μM, 6 days
Method: ISIS 549372, ISIS 549434, ISIS 549458, and ISIS 554221 were each added to the culture media at 0.04 μM, 0.20 μM, 1.00 μM, and 5.00 μM concentration of antisense oligonucleotide. ISIS 347526 was included as a negative control. After a treatment period of 6 days, the proliferative capacity of the cancer cells was measured with using CellTiter 96® AQueous One Solution Cell Proliferation kit (Promega), following the manufacturer's instructions. Results are presented in Table 41 as percent inhibition of proliferation, relative to non-treated cells.

KLK3 mRNA = KLK3 mRNA (AR target gene) in C4-2B MR cells; conditions: C4-2B MR cells, 0.04-5.00 μM
[6] = C4-2B MR cells, 1 μM ASO free uptake, 2 days (Example 15)

Sequence	Percent inhibition of AR full-length mRNA (AR full-length mRNA; dose 5.0 nM) [%]	Percent inhibition of AR full-length mRNA (AR full-length mRNA; dose 16.7 nM) [%]	Percent inhibition of AR full-length mRNA (AR full-length mRNA; dose 50.0 nM) [%]	Percent inhibition of C4-2B cell proliferation with 0.1 μM ASO (C4-2B cells [1]; 0.1 μM ASO + MDV3100 1 μM) [%]	Percent inhibition of C4-2B cell proliferation with 0.1 μM ASO (C4-2B cells [1]; 0.1 μM ASO + MDV3100 […]) [%]	Percent inhibition of C4-2B cell proliferation with 0.1 μM ASO (C4-2B cells [1]; 0.1 μM ASO, MDV3100 0 μM) [%]	Percent inhibition of C4-2B cell proliferation with 0.2 μM ASO (C4-2B cells [1]; 0.2 μM ASO + MDV3100 1 μM) [%]	Percent inhibition of C4-2B cell proliferation with 0.2 μM ASO (C4-2B cells [1]; 0.2 μM ASO + MDV3100 […]) [%]	Percent inhibition of C4-2B cell proliferation with 0.2 μM ASO (C4-2B cells [1]; 0.2 μM ASO, MDV3100 0 μM) [%]	reduced cell proliferation, ASO alone (C4-2B cells [1]; C4-2B cells) [%]	Percent inhibition of AR full-length mRNA (AR mRNA [2]; dose 0.04 μM) [%]	Percent inhibition of AR full-length mRNA (AR mRNA [2]; dose 0.20 μM) [%]	Percent inhibition of AR full-length mRNA (AR mRNA [2]; dose 1.00 μM) [%]	Percent inhibition of AR full-length mRNA (AR mRNA [2]; dose 5.00 μM) [%]	Percent inhibition of AR splice variant, V7 ([4]; dose 5.0 nM) [%]	Percent inhibition of AR splice variant, V7 ([4]; dose 16.7 nM) [%]	Percent inhibition of AR splice variant, V7 ([4]; dose 50.0 nM) [%]	levels of AR-V7 (Western analysis) (AR-V7)	levels of full-length AR (Western analysis) (full-length AR)	Percent inhibition of cell proliferation (C4-2B cells [5]; dose 0.04 μM) [%]	also measured
ACCAAGTTTCTTCAGC (LNA gapmer, phosphorothioate backbone, further chemistry not given here) [ISIS 554221, 3-10-3 LNA gapmer, phosphorothioate backbone, targeted to exon 4 of AR; benchmark, reference compound]	41	67	72	59	29	9	67	45	23	23	0	0	0	0	1	7	35	did not reduce levels of AR-V7	reduced levels of full-length AR less extensively compared to ISIS 549372	0	AR mRNA levels in LMR20 cells (AR mRNA [3]): did not alter AR mRNA levels; Percent inhibition of LMR20 cell proliferation (LMR20 cells; CSS + DHT, ASO 0.04 μM): 0%; Percent inhibition of LMR20 cell proliferation (LMR20 cells; CSS + DHT, ASO 0.20 μM): 0%; Percent inhibition of LMR20 cell proliferation (LMR20 cells; CSS + DHT, ASO 1.0 μM): 10%; Percent inhibition of LMR20 cell proliferation (LMR20 cells; CSS + DHT, ASO 5.0 μM): 36%; Percent inhibition of LMR20 cell proliferation (LMR20 cells; CSS + R1881, ASO 0.04 μM): 1%; Percent inhibition of LMR20 cell proliferation (LMR20 cells; CSS + R1881, ASO 0.20 μM): 10%; Percent inhibition of LMR20 cell proliferation (LMR20 cells; CSS + R1881, ASO 1.0 μM): 19%; Percent inhibition of LMR20 cell proliferation (LMR20 cells; CSS + R1881, ASO 5.0 μM): 54%; Percent inhibition of LMR20 cell proliferation (LMR20 cells; CSS, ASO 0.04 μM): 0%; Percent inhibition of LMR20 cell proliferation (LMR20 cells; CSS, ASO 0.20 μM): 1%; Percent inhibition of LMR20 cell proliferation (LMR20 cells; CSS, ASO 1.0 μM): 2%; Percent inhibition of LMR20 cell proliferation (LMR20 cells; CSS, ASO 5.0 μM): 16%; Percent inhibition of cell proliferation (C4-2B cells [5]; dose 0.20 μM): 10%; Percent inhibition of cell proliferation (C4-2B cells [5]; dose 1.00 μM): 21%; Percent inhibition of cell proliferation (C4-2B cells [5]; dose 5.00 μM): 30%; Percent inhibition of cell proliferation (CWR22-RV1 cells; dose 5.0 nM): 11%; Percent inhibition of cell proliferation (CWR22-RV1 cells; dose 16.7 nM): 27%; Percent inhibition of cell proliferation (CWR22-RV1 cells; dose 50.0 nM): 47%
AAGTTGTAGTAGTCGC (kA*kA*kG*dT*dT*dG*dT*dA*dG*dT*dA*dG*dT*k[5mC]*kG*k[5mC]) [ISIS 549372, targets exon 1]	53	64	78	66	44	23	77	69	59	59	10	36	73	80	35	56	82	reduced levels of full-length AR and AR-V7	reduced levels of full-length AR and AR-V7	8	AR target gene KLK2 mRNA levels (KLK2 mRNA): reduced target gene levels in a dose dependent manner more extensively than treatment with ISIS 554221; synergy with MDV3100 (C4-2B cells [1]; C4-2B cells): synergistic with MDV3100; cell proliferation inhibited, combination (C4-2B cells [1]; C4-2B cells, 0.1 μM ASO in combination with […] MDV3100): 66%; inhibited cell proliferation, ASO alone (C4-2B cells [1]; C4-2B cells, ASO alone at 0.1 μM): 23%; prostate cancer cell proliferation, ASO in combination with MDV3100 (C4-2B cells [1]; C4-2B cells, versus equal molar ISIS 554221 + MDV3100): inhibited prostate cancer cell proliferation to a greater extent than an equal molar concentration of ISIS 554221 in combination of MDV3100; AR mRNA expression (AR mRNA [2]; free uptake 0.04-5.00 μM): inhibited AR mRNA expression more potently than ISIS 554221; total AR transcript levels (total AR mRNA): reduced total AR transcript levels in a dose dependent manner more extensively than treatment with ISIS 554221; AR-V7 (western blot) (AR-V7; [6]): reduced full-length AR and AR-V7 more extensively than treatment with either ISIS 554221 or ISIS 549434; proliferation of C4-2B MR cells (C4-2B MR cells): reduced proliferation of the cells in a dose dependent manner more extensively than treatment with ISIS 554221; full-length AR (western blot) (full-length AR; [6]): reduced full-length AR and AR-V7 more extensively than treatment with either ISIS 554221 or ISIS 549434; Percent inhibition of cell proliferation (C4-2B cells [5]; dose 0.20 μM): 34%; Percent inhibition of cell proliferation (C4-2B cells [5]; dose 1.00 μM): 44%; Percent inhibition of cell proliferation (C4-2B cells [5]; dose 5.00 μM): 45%; Percent inhibition of cell proliferation (CWR22-RV1 cells; dose 5.0 nM): 0%; Percent inhibition of cell proliferation (CWR22-RV1 cells; dose 16.7 nM): 25%; Percent inhibition of cell proliferation (CWR22-RV1 cells; dose 50.0 nM): 53%; AR target gene KLK3 mRNA levels (KLK3 mRNA): reduced target gene levels in a dose dependent manner more extensively than treatment with ISIS 554221
